{
  "source": "paper PMC10251479",
  "about": "“PROTAC-Induced Glycogen Synthase Kinase 3β Degradation as a Potential Therapeutic Strategy for Alzheimer’s Disease” (ACS Chemical Neuroscience, 2023)",
  "key": {"[1]": {"system": "SH-SY5Y cells", "test": "Neuroprotective effects against CuSO4 in SH-SY5Y cells (MTT)", "type": "cell-based, human", "conditions": "24 h, CuSO4 150 μM", "experimental": "SH-SY5Y cells were seeded in a 96-well plate at 2 × 10^4 cells/well, incubated for 24 h and then […]\npresence of CuSO4 (150 µM) at 37 °C in 5 % CO2. Cells were also treated with compound 1 (1 µM) for 24 h in the presence of lactacystin (5 µM). At the end of the treatment, the cell viability, in terms of mitochondrial metabolic function, was evaluated by the reduction of 3-(4,5-dimethyl-2-thiazolyl)- 2,5-diphenyl-2H-tetrazolium bromide (MTT) to its insoluble formazan. Briefly, the treatment was replaced with MTT in HBSS [0.5 mg/mL] for 2 h at 37°C in 5% CO2. After washing with HBSS, formazan crystals were dissolved in isopropanol. The amount of formazan was measured (570 nm, reference filter 690 nm) using a multilabel plate reader (VICTOR™ X3, PerkinElmer, Waltham, MA, USA).[10] Data are reported as mean ± SEM of three independent experiments. The neurotoxicity was expressed as a percentage of control cells and calculated by the formula: 100 – ((absorbance of treated"}, "[2]": {"test": "PAMPA-BBB permeation", "type": "in vitro ADME", "experimental": "11. PAMPA BBB permeation studies.\nPrediction of the brain penetration was evaluated using a parallel artificial membrane permeability assay (PAMPA).[12] Ten commercial drugs, PBS at pH 7.4, EtOH, and dodecane were purchased from Sigma- Aldrich, Acros organics, Merck, and Fluka. The porcine polar brain lipid (PBL) was from Avanti Polar Lipids. The donor plate was a 96-well filtrate plate (Multiscreen® IP Sterile Plate PDVF […]\nboth from Millipore. Filter PDVF membrane units (diameter 30 mm, pore size 0.45 µm) from Symta were used to filter the samples. A 96-well plate UV reader (Biteck Instruments, Synergy H4 Hibrid Reader) was used for the UV measurements.\n12 mg of promazine) were dissolved in 1 mL of EtOH. 100 µL of this compound stock solution were taken and 1400 µL of EtOH and 3500 µL of PBS were added to reach 30% of EtOH concentration in the experiment. These solutions were filtered. The acceptor 96-well microplate was filled with 180 µL of PBS/EtOH (70/30). The donor 96-well plate was coated with 4 µL of porcine brain lipid in dodecane (20 mg mL-1) and after 5 min, 180 µL of each compound solution was added. 1 mg of […]\nof EtOH and 1.4 mL of PBS, filtered and then added to the donor 96-well plate. Then the donor plate was carefully put on the acceptor plate to form a “sandwich”, which was left undisturbed for 2 h and 45 min at 25 °C. During this time the compounds diffused from the donor plate through the brain lipid membrane into the acceptor plate. After incubation, the donor plate was removed. UV plate reader determined the concentration of compounds and commercial drugs in the acceptor and the donor plates. Every sample was analyzed at three to five wavelengths (between 200 and 500 nm), in 3 wells and in two independent runs. Results are given as the mean and the average of the two runs is reported. Quality control compounds (previously mentioned) of known BBB permeability were included in each experiment to validate the analysis set."}, "[3]": {"conditions": "classified from experimental Pe"}},
  "data": [
    {"smiles": "O=C(Cn1cc(C2=C(c3ccc(Cl)cc3Cl)C(=O)NC2=O)c2ccccc21)NCCCOCCCCOCCCNc1cccc2c1C(=O)N(C1CCC(=O)NC1=O)C2=O", "note": "(centres unmarked) [Compound 1]", "values": [
      {"measurement": "neurotoxicity induced by CuSO4", "setting": "[1]; 1 μM, MTT", "result": "significantly counteracted the neurotoxicity induced by CuSO4"},
      {"measurement": "neuroprotective effect against CuSO4 in the presence of lactacystin", "setting": "[1]; lactacystin 5 μM", "result": "abolished by lactacystin"},
      {"measurement": "Papp at 2.75 h", "setting": "[2]; PAMPA, pH 7.4, PBS:EtOH (70:30), 2 h 45 min at 25 °C, porcine brain lipid, mean ± SD of two independent experiments, read-out: Pe (experimental data)", "result": "15.3 ± 1.12", "unit": "×10⁻⁶ cm/s"},
      {"measurement": "BBB permeability classification", "setting": "[2]; [3]", "result": "CNS±"},
      {"measurement": "Prediction (penetration in the CNS)", "setting": "[2]; [3]", "result": "CNS +/- (CNS +/- (orange) for 15.78 × 10 −6 cm s−1 > Pe > 11.11 × 10 –6 cm s−1)"}
    ]}
  ]
}
